From US20240294571A1, “ANALGESIC AND ANESTHETIC PEPTIDES AND OTHER AGENTS” (The Research Foundation for The State University of New York, priority 2019, published 2024)
Ends that are not written are not given here. Peptide text beside a SMILES is read from it. * marks the point of attachment. Myristoyl = CCCCCCCCCCCCCC(=O)*

Experiments:
rat hind paws = assay: Hematoxylin & eosin staining, immune cells and gait in incisional pain model; type: in vivo
Procedure: (A) Animals were treated as previously stated in the Methods section. However, no behavior was collected, instead, animals were sacrificed via transcardial perfusion, and tissue was collected for staining. (Top) Representative images depicting hematoxylin & eosin staining of rat hind paws in scrambled (n=2) and AP2 inhibitory peptide groups (n=2). Localized immune cells can be observed in the dermis in each condition. (Bottom) 24 hours following incision, there is a rapid increase in the number of immune cells. […] (B) Representative images of incision site in animals that received either the scrambled peptide (top) or AP2 inhibitory peptide (bottom). Black arrows highlight significant granuloma-like structures.

AP2 complex = AP2 complex (Homo sapiens, UniProt O94973+P53680); conditions: peptide sequence derived from human CD4 di-leucine motif; read-out: affinity for the AP2 complex; cited from earlier work
C57BL/6 mice [1] = assay: Formalin acute inflammatory pain assay; type: in vivo, mouse
Procedure: (§1) Formalin Assay. Male and female C57BL/6 mice were randomly assigned to either control or experimental groups. Animals were habituated to the formalin testing chamber for 30 minutes or until exploratory behavior ceased the day of experimentation. Following the habituation period, animals were removed from the chamber and given an intraplantar injection of 5% formalin into the ipsilateral hind paw, then immediately placed back into the testing chamber and recorded. Animals were recorded for at least 90 minutes after formalin injection using Active WebCam software. Videos were subsequently scored for number of paw licks, number of paw lifts, and number of full body flinches. All behaviors were scored for a full minute, every five minutes, for 90 minutes of video recording.
as §1, with “Assay:” for “Assay.”, “Animals were habituated to the formalin testing chamber for 30 minutes or until exploratory behavior ceased the day of experimentation.” left out, “All behaviors were scored for a full minute, every five minutes, for 90 minutes of video recording.” left out

C57BL/6 mice [2] = assay: CFA-induced inflammatory pain, thermal sensitivity (Hargreaves); type: in vivo, mouse; conditions: for tau (τ), time constant of thermal sensitivity recovery: time in days
Procedure: Freund's Complete Adjuvant Chronic Pain Model. C57BL/6 mice were anesthetized (induction: 3%, maintenance: 2%) and placed in a prone position. After the animals were under a surgical plane of anesthesia, denoted by a loss of reaction to both a tail and hind paw pinch, they received a 20 μL injection of Imject™ Freund's Complete Adjuvant (FCA; Thermo Fisher Scientific) and allowed to recover. Behavior testing resumed 24 hours post FCA injection. Each cohort of animals received FCA from previously unopened, vacuum sealed glass ampules to minimize variations between groups.
(§2) Hargreaves Assay. Animals were placed on an enclosed elevated frosted glass platform (Ugo Baseline) and allowed 30 minutes for habituation. Once exploratory behavior ceased, an automatic Hargreaves apparatus was maneuvered (Ugo Baseline) underneath the hind paw(s) of the animals. Paw withdrawal latency was calculated as the average of four trials per hind limb. Each trial was followed by a 5-minute latency period to allow adequate recovery time between trials.
Complete Freund's Adjuvant Induced Inflammatory Pain: Male and female C57BL/6 mice were randomized into experimental and control groups. In order to maintain consistency in regards to site of injection, mice were anesthetized and injected with a 32-gauge disposable syringe filled with 20 μL of Imject™ Complete Freund's Adjuvant (Thermo Fisher Scientific) into the plantar surface of the right hind paw and allowed to recover. Behavior testing resumed 24 hours post-CFA injection at which point the animals received a 20 μL intraplantar injection of 100 μM (3.154 μg total) lipidated peptidomimetic immediately after the conclusion of day 1 behavioral testing. In order to minimize experimental error between groups, each group of animals received CFA from previously unopened, vacuum-sealed glass ampules ensuring CFA of identical specific activity.
as §2, with “Thermal Sensitivity Testing: Prior to testing, animals were allowed to habituate to the testing room for 1 hour on each day. Animals were” for “Hargreaves Assay. Animals were”, “maneuvered (Ugo Basile) underneath the” for “maneuvered (Ugo Baseline) underneath the”

rats = assay: Incisional post-operative pain model, thermal sensitivity; type: in vivo, rat; conditions: for tau (τ), rate of recovery following incision: exponential decay fit, time in days
Procedure: Incisional post-operative pain model: To model post-operative pain, an established rat incisional model was used. In short, male and female rats were randomized into either experimental or control groups. On the day of surgery, the animals were anesthetized and placed into a prone position. Once the animal was under a surgical plane of anesthesia, a 200 μL intraplantar injection of 100 μM (31.54 μg total) lipidated peptidomimetic was made into the ipsilateral hind paw. Afterwards, the animals were returned to their home cage and allowed to recover. On the same day, 6 hours after the pre-injection, the animals were anaesthetized, placed into a prone position, and prepared for incision injury. The ipsilateral hind paw was sterilized using successive swabs of chlorohexidine, 70% ethanol, and iodine. Then, using a size 10 scalpel, a 1 cm long incision was made into the plantar surface of the ipsilateral hind paw. Short, yet firm, strokes were used to make incisions through the skin, fascia, and muscle of the hind paw. Following incision, two 50 μL injections, containing 100 μM (7.885 μg per injection) of the lipidated peptidomimetic, were made into each “half” of the incised plantar muscle. Following injection into the muscle, the skin was sutured using 6/0 silk sutures (Ethicon) in a continuous manner to discourage removal of sutures. Upon conclusion of suturing, four 25 μL injections containing 100 μM (3.9425 μg per injection) of the lipidated peptidomimetic, were made into a “quadrant” adjacent to the incision. Finally, the animals were returned to their home cage and allowed to recover for at least 16 hours.
as §2, with “Thermal Sensitivity Testing: Prior to testing, animals were allowed to habituate to the testing room for 1 hour on each day. Animals were” for “Hargreaves Assay. Animals were”, “maneuvered (Ugo Basile) underneath the” for “maneuvered (Ugo Baseline) underneath the”

[3] = single i.pl. peptide injection (100 μM, 20 μL) 24 h after CFA, n=8
[4] = peptide 100 μM 6 h before and immediately after plantar incision

Sequence of AP2 complex (O94973 1-621 limits assumed): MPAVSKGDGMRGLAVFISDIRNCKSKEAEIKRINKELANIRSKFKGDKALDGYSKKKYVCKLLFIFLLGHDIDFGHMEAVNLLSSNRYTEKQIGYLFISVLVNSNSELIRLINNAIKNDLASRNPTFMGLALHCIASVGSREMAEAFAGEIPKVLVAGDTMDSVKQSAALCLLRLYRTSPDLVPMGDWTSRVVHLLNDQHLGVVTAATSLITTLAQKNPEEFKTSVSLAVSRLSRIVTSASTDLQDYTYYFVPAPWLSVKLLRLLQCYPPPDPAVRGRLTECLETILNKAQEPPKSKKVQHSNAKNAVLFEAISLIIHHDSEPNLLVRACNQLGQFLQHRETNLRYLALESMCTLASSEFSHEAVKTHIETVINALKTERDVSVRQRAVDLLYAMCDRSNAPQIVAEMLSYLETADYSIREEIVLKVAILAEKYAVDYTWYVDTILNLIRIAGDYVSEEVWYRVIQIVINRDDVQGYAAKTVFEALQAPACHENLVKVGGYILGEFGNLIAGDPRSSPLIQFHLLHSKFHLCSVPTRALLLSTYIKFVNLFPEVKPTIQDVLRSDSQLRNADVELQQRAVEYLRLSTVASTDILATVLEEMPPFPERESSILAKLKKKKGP
Sequence of AP2 complex (P53680 whole entry): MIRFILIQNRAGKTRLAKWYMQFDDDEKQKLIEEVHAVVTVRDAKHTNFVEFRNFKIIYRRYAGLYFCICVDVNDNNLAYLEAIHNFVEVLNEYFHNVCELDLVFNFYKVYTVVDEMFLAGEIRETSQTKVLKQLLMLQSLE
Sequence of AP2 complex (P63010 1-591 partner limits assumed): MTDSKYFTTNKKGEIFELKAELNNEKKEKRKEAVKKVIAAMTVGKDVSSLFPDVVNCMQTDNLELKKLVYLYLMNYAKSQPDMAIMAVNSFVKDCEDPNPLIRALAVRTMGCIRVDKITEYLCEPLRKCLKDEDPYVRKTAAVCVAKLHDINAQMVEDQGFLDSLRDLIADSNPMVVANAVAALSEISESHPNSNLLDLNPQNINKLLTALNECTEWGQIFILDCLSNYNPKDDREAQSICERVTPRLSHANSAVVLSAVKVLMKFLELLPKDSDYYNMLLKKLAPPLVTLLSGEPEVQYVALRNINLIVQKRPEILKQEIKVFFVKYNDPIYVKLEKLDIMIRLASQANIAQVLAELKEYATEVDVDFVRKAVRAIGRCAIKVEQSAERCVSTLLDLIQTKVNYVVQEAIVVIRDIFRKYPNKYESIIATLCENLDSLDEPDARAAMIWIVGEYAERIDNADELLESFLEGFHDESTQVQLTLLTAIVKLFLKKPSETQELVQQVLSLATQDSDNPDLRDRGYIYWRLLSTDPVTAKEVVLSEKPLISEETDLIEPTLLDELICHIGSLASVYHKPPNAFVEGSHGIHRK
Sequence of AP2 complex (Q96CW1 whole entry partner): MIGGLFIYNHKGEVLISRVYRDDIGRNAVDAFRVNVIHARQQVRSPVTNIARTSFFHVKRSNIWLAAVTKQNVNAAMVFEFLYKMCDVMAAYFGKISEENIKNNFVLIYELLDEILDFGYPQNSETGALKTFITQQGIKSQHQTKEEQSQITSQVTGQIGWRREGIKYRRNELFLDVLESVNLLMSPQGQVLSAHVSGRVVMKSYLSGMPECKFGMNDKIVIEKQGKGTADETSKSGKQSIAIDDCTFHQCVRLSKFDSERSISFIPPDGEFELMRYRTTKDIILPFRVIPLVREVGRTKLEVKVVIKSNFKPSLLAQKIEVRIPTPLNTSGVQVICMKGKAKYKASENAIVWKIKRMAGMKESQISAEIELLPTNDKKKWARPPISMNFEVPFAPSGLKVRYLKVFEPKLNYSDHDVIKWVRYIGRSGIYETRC

CCCCCCCCCCCCCC(=O)N[C@@H](CCCNC(=N)N)C(=O)N[C@@H](CCSC)C(=O)N[C@@H](CO)C(=O)N[C@@H](CCC(=O)O)C(=O)N[C@H](C(=O)N[C@@H](CCCCN)C(=O)N[C@@H](CCCNC(=N)N)C(=O)N[C@@H](CC(C)C)C(=O)N[C@@H](CC(C)C)C(=O)N[C@@H](CO)C(=O)N[C@@H](CCC(=O)O)C(=O)O)[C@@H](C)CC [AP2 inhibitor peptide, RMSEIKRLLSE (SEQ ID NO: 1)] (Myristoyl-RMSEIKRLLSE-OH; N-terminus and C-terminus assumed)
granuloma-like clustering of immune cells (rat hind paws; 24 hours following incision, n=2): dense clustering of immune cells | changes in gait (rat hind paws; after injection of the peptide): did not potentiate any observable changes | Kd (AP2 complex): 650 nM

RASDKQTLLPNQ (SEQ ID NO: 5) (also: phosphorylated, site not given here) [P4, di-leucine based peptide, parent protein CD3, phosphorylated]
nocifensive (licking and lifting) behaviors (C57BL/6 mice [1]; di-leucine peptide analogs, 5% formalin, n=3 per analog): significant decreases

IERLSEMSLRK (SEQ ID NO: 6) [scrambled peptide]
paw withdrawal latency day-1 (C57BL/6 mice [2]; 24 h after CFA, before the single i.pl. peptide injection, n=8): 2.4 ± 0.3 s | tau (τ), time constant of thermal sensitivity recovery (C57BL/6 mice [2]; all animals, first order exponential decay fit): 4.82 | tau (τ), time constant of thermal sensitivity recovery (C57BL/6 mice [2]; female mice, exponential decay fit): 3.23 | tau (τ), time constant of thermal sensitivity recovery (C57BL/6 mice [2]; male mice, exponential decay fit): 6.45 | paw withdrawal latency day-2 (C57BL/6 mice [2]; [3]): 3.8 ± 0.5 s | paw withdrawal latency day-3 (C57BL/6 mice [2]; [3]): 3.8 ± 0.4 s | paw withdrawal latency day-5 (C57BL/6 mice [2]; [3]): 5.5 ± 0.6 s | paw withdrawal latency day-9 (C57BL/6 mice [2]; [3]): 7.0 ± 0.8 s | tau (τ), rate of recovery following incision (rats; all rats): 9.09 | tau (τ), rate of recovery following incision (rats; female rats): 11.72 | tau (τ), rate of recovery following incision (rats; male rats): 7.46 | paw withdrawal latency day-1 (rats; [4]): 5.7 ± 0.4 s | paw withdrawal latency day-2 (rats; [4]): 6.4 ± 0.4 s | paw withdrawal latency day-3 (rats; [4]): 7.4 ± 0.5 s | paw withdrawal latency day-4 (rats; [4]): 7.4 ± 0.5 s | paw withdrawal latency day-5 (rats; [4]): 8.3 ± 0.6 s | paw withdrawal latency day-6 (rats; [4]): 8.6 ± 0.5 s | paw withdrawal latency day-7 (rats; [4]): 11.7 ± 0.6 s | paw withdrawal latency day-8 (rats; [4]): 11.4 ± 0.4 s | paw withdrawal latency day-9 (rats; [4]): 12.0 ± 0.6 s | cumulative phase 2 paw licking behavior (C57BL/6 mice [1]; single i.pl. peptide injection (100 μM, 20 μL) 24 h before 5% formalin, n=6): 184±22
